Results from patent US20240293430A1, “WITHAFERIN A AND IMMUNE CHECKPOINT BLOCKER COMBINATION THERAPIES” (University of South Florida, priority 2023, published 2024).

Columns and labels:
[1] = system: PD-L1 expression in MC38, HCT116 colon cancer cell lines; test: PD-L1 expression in colon cancer cell lines; assay type: cell-based, mouse (MC38), human (HCT116)
Procedure: (§1) FIGS. 8A-8G depict that WFA induced ICD and PD-L1 upregulation in colorectal cancer cell lines. WFA increased the levels of ecto-CRT in the murine colorectal cancer cell line (FIG. 8A) MC-38 and human cell line (FIG. 8B) HCT-116. WFA increased the expression of PD-L1 in both (FIG. 8C) MC-38 and (FIG. 8D) HCT-116 cells. […] H1650 cells (at a higher density) were treated with a higher concentration of WFA (2 and 4 μM) to facilitate cell collection and protein isolation. The band density was quantified using Image J software and normalized to the housekeeping protein. The fold change from untreated control was averaged from two independent experiments ±SEM and one-way ANOVA was used to calculate the statistical significance. A Fisher LSD post hoc test was performed to compare the treatments to the control in (FIG. 8E) LLC, (FIG. 8F) H1650, (FIG. 8G) A549 cells. * p<0.05, ** p<0.01, *** p<0.001, **** p<0.0001.
(§2) In vitro WFA-treated or control cells were collected using Accutase cell detachment solution and stained with FACS-diluted (PBS, 10% FBS, 2 mMEDTA) pre-titrated fluorophore conjugated or primary unconjugated antibody solutions (Table 1) for 30 min on ice in the dark. […]

[2] = system: tumor-immune infiltration and ecto-CRT in LLC tumors; test: LLC syngeneic mouse model, flow cytometry of collected tumors; assay type: in vivo, C57BL/6 mice
Procedure: FIGS. 5A-5G depict that WFA sensitizes flank tumors to α-PD-L1 therapy and targets immunosuppressive MDSCs and T-regs. (FIG. 5A) Establishment of LLC flank tumors and treatment schedule. (FIG. 5B) Tumor volume measurement in mm^3 and tumor weight at the endpoint of the experiment. (FIG. 5C) Change in the levels of ecto-CRT in tumors was measured using flow cytometry. (FIGS. 5D-5G) Flow cytometry was used to determine the change in immune cell infiltration in collected tumors. […] Moreover, WFA reduced the immunosuppressive T regs (FIG. 5F) and CD11b+Gr1+MDSC (FIG. 5G) populations. The means of two independent experiments ±SEM are shown, and the statistical significance was calculated using one-way ANOVA and a Fisher LSD post hoc test where * and #represent p<0.05 and ** and ##represent p<0.01. * Symbols refer to the difference between the vehicle control and WFA, while #refers to comparisons between the vehicle control and WFA+α-PD-L1 combination.
FIGS. 12A-12D depicts the gating strategy used to determine tumor immune infiltration in LLC tumors and spleens. […] Out of the CD11b population, we gated the monocytic CD11b+Ly6C+ and CD11b+Ly6G+granulocytic MDSCs. (FIG. 12B) For the T-cell panel, the total CD-3 population was gated out of the live single cells. Consequently, CD4, CD25+CD4+Tregs and CD8 population were gated out of CD-3 cells based on the FMO controls. (FIGS. 12C-12D) Mice body weights were measured at the endpoint of the experiment and represented as mean±SEM. The means were compared to the vehicle control using Fisher LSD post-hoc test. * p<0.05.
In vitro WFA-treated or control cells were collected using Accutase cell detachment solution and stained with FACS-diluted (PBS, 10% FBS, 2 mMEDTA) pre-titrated fluorophore conjugated or primary unconjugated antibody solutions (Table 1) for 30 min on ice in the dark. In case of fluorophore-conjugated antibodies, samples are washed and immediately acquired after adding DAPI viability dye, while samples stained with unconjugated antibodies are incubated with the proper secondary fluorophore-conjugated antibody for 30 min before washing and acquisition. For in vivo experiments, the processed tumor or spleen single cell suspensions were used for surface staining with the pre-titrated antibodies (Table 1) for 30 min on ice in the dark. To exclude the dead cells from the analysis, a fixable live/dead Zombie Aqua viability kit (Biolegend, San Diego, CA, USA) was used according to the manufacturer's protocol. Samples were then fixed using 2% PFA for 15 min then washed and stored at 4° C. before acquisition. Samples were acquired using a Becton Dickenson Biosciences (BD, Franklin Lakes, NJ, USA) FACS Canto II or LSR II system at the University of South Florida COM Fred Wright Jr Flow Cytometry Core.
C57BL/6 mice were purchased from the Jackson Laboratory (Bar Harbor, ME, USA) and acclimated for a week. To establish the LLC syngeneic tumors, C57BL/6 mice were injected with a half million cells on the right flank and monitored until tumors were first palpable (2-3 mm diameter). […] Treatments were administered every other day with a total of five treatments and mice body weights and tumor volumes were monitored using a caliper (Fisher Scientific, Waltham, MA, USA, 15-077-957). Tumor volumes (mm^3) were calculated using the equation ([…]), where the length is defined as the bigger tumor dimension. […]

[3] = system: immunosuppressive MDSC population; settings: mouse, in vivo; cited from earlier work
[4] = system: bone marrow-derived DCs co-cultured with WFA-pretreated LLC; settings: DC:LLC 5:1, 24 h co-culture, vs untreated LLC
Procedure: Cells were treated with WFA for 48 h then collected using Accutase cell detachment solution. […] (FIG. 2E) Bone marrow-derived DC were co-cultured with WFA-pretreated LLC cells (24 h) in a ratio 5:1 of DC:LLC cells for 24 h. DC activation markers (CD80, CD86, and MHC-II) were examined by flow cytometry. The means of at least 2 independent experiments ±SEM is represented, and one-way ANOVA was used to calculate statistical significance where * denotes p<0.05, ** denote p<0.01, *** denote p<0.001, and **** denote p<0.0001.
Hierarchical gating was used to identify the total cell population followed by single live cells the CD11C+DC. Out of the CD11C population, the expression of DC cell activation markers was determined based on the fluorescence minus one (FMO) controls.
Myeloid progenitor cells were isolated from the femurs of C57BL/6 mice as described previously [37]. The isolated cells were cultured in RMPI media supplemented with GMCSF and refed as necessary. On day 8, the differentiated DCs (loosely attached) were collected, counted, and added to WFA-pretreated LLCs or untreated control LLCs at a ratio of 5:1 of DC: LLC cells. […] Then the samples were acquired using a BD LSR II flow cytometer and the data were analyzed using FlowJo 8.7 software (BD, Franklin Lakes, NJ, USA).

[5] = system: ecto-CRT in MC38 and HCT-116 colorectal cancer cell lines; test: Ecto-CRT by flow cytometry, colorectal cancer; assay type: cell-based, mouse (MC38), human (HCT-116)
Procedure: as §1, §2

## CC1=C(CO)C(=O)O[C@@H]([C@@H](C)[C@H]2CC[C@H]3[C@@H]4C[C@H]5O[C@]56[C@@H](O)C=CC(=O)[C@]6(C)[C@H]4CC[C@]23C)C1 [WFA, Withaferin A]
[1]
  PD-L1 expression: increased
[2]
  CD11b+Gr1+ MDSCs in the tumor: reducing
  CD25+CD4+ T-regs in the tumor: reducing
[2]; vs control mice
  levels of ecto-CRT in vivo: increased
[2]; vs vehicle control
  CD8 T-cell infiltration: increasing
  T-cell activation markers CD69 and 41BB: not significant
[3]
  MDSC tumor infiltration and immunosuppressive function: reducing
[4]
  DC activation markers CD80, CD86, MHC-II: higher levels
[5]
  levels of ecto-CRT: increased
